Literature values in patent US10385093B2, “Estrogen receptor imaging agents” (Northeastern University, priority 2012, dated 2019).

What was measured:
[1] = system: ER; settings: binding to ER in target tissues
[2] = target: T1, steroid hormone binding globulin (SHBG) (Homo sapiens, UniProt P04278)
T1 construct: host or cells: circulating plasma
T1 sequence (P04278 30-402): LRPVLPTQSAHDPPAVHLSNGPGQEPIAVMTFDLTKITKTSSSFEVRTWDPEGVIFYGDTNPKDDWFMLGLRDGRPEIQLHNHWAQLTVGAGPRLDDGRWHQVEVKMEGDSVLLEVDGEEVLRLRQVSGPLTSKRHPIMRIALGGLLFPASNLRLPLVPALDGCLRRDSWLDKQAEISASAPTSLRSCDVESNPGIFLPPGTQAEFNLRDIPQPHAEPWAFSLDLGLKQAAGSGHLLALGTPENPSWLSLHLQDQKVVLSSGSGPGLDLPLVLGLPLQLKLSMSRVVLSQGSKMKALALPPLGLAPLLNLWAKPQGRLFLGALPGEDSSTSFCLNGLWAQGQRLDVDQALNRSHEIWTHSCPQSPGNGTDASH

[3] = plasma of patients
[4] = rats, by 60 minutes after injection
[5] = small animal studies

Row | Structure (SMILES) | relative binding affinity (RBA) [1] | FES in circulating plasma complexed with SHBG [2] | radioactivity in plasma that is parent FES [3] | circulating radioactivity due to [18F]-FES [4] | selectivity uptake ratios compared with [^18F]-ES [5]
1 | C[C@]12CC[C@@H]3c4ccc(O)cc4CC[C@H]3[C@@H]1C[C@@H](F)[C@@H]2O [FES, [^18F]-16α-fluoroestradiol] | 80% | ≤ 45% | less than 20% | less than 15% | 
2 | CO[C@H]1C[C@]2(C)[C@@H](O)[C@H]([18F])C[C@H]2[C@@H]2CCc3c(ccc(O)c3F)[C@H]21 [4FMFES, 4-Fluoro-11β-methoxy-16α-[^18F]-flouroestradiol] |  |  |  |  | higher selectivity uptake ratios
